Measured values from US9957230B2, “Synergistic compositions” (Cadila Healthcare Limited, priority 2013, dated 2018).

Assays:
Swiss albino mice = experiment: Triglyceride lowering effects of various salts in Swiss albino mice; assay type: in vivo; settings: dose equivalent to 1 mg/kg free acid; for Serum triglycerides (mg/dl) Day 0: Day 0 (pretreatment); for Serum triglycerides (mg/dl) Day 0 / Serum triglycerides (mg/dl) Day 6: male Swiss albino mice; for Serum triglycerides (mg/dl) Day 6: Day 6, one hr after dose; for % Change Vs control: serum triglycerides vs vehicle control after 6 days; for % Change Day 6 vs Day 0: serum triglycerides
Experimental: Comparative Efficacy Study of (Triglyceride Lowering Effects) of Various Salts of Compound (Ia) in Swiss Albino Mice.
The in-vivo efficacy of compound (I) was evaluated in Swiss albino mice. Anti-dyslipidemic drugs have been reported to lower circulating levels of triglyceride in Swiss albino mice through their effect on genes involved in the peroxisomal fatty acid beta oxidation via PPAR alpha agonism. Therefore, this species is preferred for evaluation of their efficacy in lowering circulating triglyceride (TG) levels.
In this experiment, six to eight week old male Swiss albino mice were issued and kept for acclimatization. Near the end of the acclimatization period, animals judged to be suitable for testing were bled under light ether anesthesia and serum samples were analyzed for Serum triglyceride levels.
Test compound was formulated at specified doses in vehicle (10% Polyethylene glycol (PEG) 400+90% of 0.5% Sodium Carboxy methyl cellulose). The animals were dosed orally, once daily in the morning during six days, starting from next day of grouping with vehicle or test compound. The animals were weighed prior to dosing, and based on these weights; the volume of administration was calculated. The volume of formulation administered to each mouse was 10 ml/kg body weight.
On day 6 one hr after the dose administration, blood (0.25 ml) was collected from retro-orbital sinus of the anaesthetized animals. Serum was separated by centrifugation. Serum was analyzed for triglyceride levels. Analysis for serum triglyceride levels was performed using a Spectrophotometer and commercially available kit. Calculations for determination of % change and % reduction in serum TG levels were performed using MS Excels sheet.

db/db mice = experiment: Oral glucose tolerance test in db/db mice (studies I and II); assay type: in vivo; settings: Table 12, Compound (Ia) 0.1 mg/kg, Metformin 150 mg/kg p.o.
Text: 8. […] 8. The treatment was given oral gavages once daily for 14 days.
The OGTT procedure followed is as given below—

[1] = Table 3, oral once daily 6 days
[2] = Table 5, oral once daily 6 days

Row | Molecule | Serum triglycerides (mg/dl) Day 0 (Swiss albino mice; Table 7, po once daily 6 days) [mg/dL] | Serum triglycerides (mg/dl) Day 6 (Swiss albino mice; Table 7, po once daily 6 days) [mg/dL] | % Change Vs control (Swiss albino mice; Table 7, po) [%] | % Change Day 6 vs Day 0 (Swiss albino mice; Table 7, po once daily 6 days) [%] | Serum triglycerides (mg/dl) Day 0 (Swiss albino mice; [2]) [mg/dL] | Serum triglycerides (mg/dl) Day 6 (Swiss albino mice; [2]) [mg/dL] | % Change Vs control (Swiss albino mice; Table 5, oral) [%] | % Change Day 6 vs Day 0 (Swiss albino mice; [2]) [%] | also measured
1 | CCO[C@@H](Cc1ccc(OCCn2c(C)ccc2-c2ccc(SC)cc2)cc1)C(=O)[O-].[Na+] [Sodium Salt of Formula (I), (S) 2-Ethoxy-3-(4-{2-[2-methyl-5-(4-methylthiophenyl)-pyrrol-1-yl]-ethoxy}-phenyl)-propionic acid sodium salt] |  |  |  |  |  |  |  |  | Serum triglycerides (mg/dl) Day 0 (Swiss albino mice; [1]): 119.4 ± 11.9 mg/dL; Serum triglycerides (mg/dl) Day 6 (Swiss albino mice; [1]): 41.6 ± 1.8 mg/dL; % Change Vs control (Swiss albino mice; Table 3, oral): −63.1 ± 3.6%; % Change Day 6 vs Day 0 (Swiss albino mice; [1]): −63.5 ± 3.6%
2 | CCO[C@@H](Cc1ccc(OCCn2c(C)ccc2-c2ccc(SC)cc2)cc1)C(=O)[O-].C[N+](C)(C)CCO [Choline salt of Formula (I), Choline Salt (i.e 2-Hydroxy-N,N,N-trimethylethanaminium hydroxide or choline hydroxide) of (S) 2-Ethoxy-3-(4-{2-[2-methyl-5-(4-methylthiophenyl)-pyrrol-1-ylethoxyphenylpropionic acid] | 110.9 ± 7.7 | 47.6 ± 3.4 | −51.0 ± 4.8 | −56.0 ± 4.3 |  |  |  |  | 
3 | (S) 2-Ethoxy-3-(4-{2-[2-methyl-5-(4-methylthiophenyl)-pyrrol-1-yl]-ethoxy}-phenyl)-propionic acid Zinc Salt [Zinc Salt of Formula (I)] |  |  |  |  |  |  |  |  | Serum triglycerides (mg/dl) Day 0 (Swiss albino mice; [1]): 119.1 ± 7.6 mg/dL; Serum triglycerides (mg/dl) Day 6 (Swiss albino mice; [1]): 68.6 ± 7.5 mg/dL; % Change Vs control (Swiss albino mice; Table 3, oral): −42.0 ± 4.2%; % Change Day 6 vs Day 0 (Swiss albino mice; [1]): −42.7 ± 4.2%
4 | CCO[C@@H](Cc1ccc(OCCn2c(C)ccc2-c2ccc(SC)cc2)cc1)C(=O)O.OCCN1CCCC1 [Epolamine salt of Formula (I)] | 110.5 ± 7.5 | 39.6 ± 3.8 | −60.1 ± 2.6 | −64.2 ± 2.3 |  |  |  |  | 
5 | CCO[C@@H](Cc1ccc(OCCn2c(C)ccc2-c2ccc(SC)cc2)cc1)C(=O)O.c1c[nH]cn1 [Imidazole salt of Formula (I), (S) 2-Ethoxy-3-(4-{2-[2-methyl-5-(4-methylthiophenyl)-pyrrol-1-yl]-ethoxy}-phenyl)-propionic acid imidazole salt] | 110.5 ± 7.2 | 43.5 ± 2.5 | −55.3 ± 3.6 | −59.8 ± 3.2 |  |  |  |  | 
6 | CCO[C@@H](Cc1ccc(OCCn2c(C)ccc2-c2ccc(SC)cc2)cc1)C(=O)O.c1ccc(CCNCc2ccccc2)cc1 [Benethamine salt of Formula (I), (S) 2-Ethoxy-3-(4-{2-[2-methyl-5-(4-methylthiophenyl)-pyrrol-1-yl]-ethoxy}-phenyl)-propionic acid Benethamine salt] |  |  |  |  | 91.6 ± 6.4 | 56.0 ± 4.9 | −41.6 ± 5.4 | −38.3 ± 5.7 | 
7 | (S) 2-Ethoxy-3-(4-{2-[2-methyl-5-(4-methylthiophenyl)-pyrrol-1-yl]-ethoxy}-phenyl)-propionic acid piperazine salt [Piperazine salt of Formula (I)] |  |  |  |  | 91.0 ± 6.5 | 44.1 ± 1.9 | −52.8 ± 3.7 | −50.2 ± 4.0 | 
8 | (S) 2-Ethoxy-3-(4-{2-[2-methyl-5-(4-methylthiophenyl)-pyrrol-1-yl]-ethoxy}-phenyl)-propionic acid Calcium Salt [Calcium Salt of Formula (I)] |  |  |  |  |  |  |  |  | Serum triglycerides (mg/dl) Day 0 (Swiss albino mice; [1]): 119.2 ± 11.1 mg/dL; Serum triglycerides (mg/dl) Day 6 (Swiss albino mice; [1]): 38.8 ± 3.2 mg/dL; % Change Vs control (Swiss albino mice; Table 3, oral): −66.4 ± 2.5%; % Change Day 6 vs Day 0 (Swiss albino mice; [1]): −66.8 ± 2.5%
9 | (S) 2-Ethoxy-3-(4-{2-[2-methyl-5-(4-methylthiophenyl)-pyrrol-1-yl]-ethoxy}-phenyl)-propionic acid Tromethamine salt [Tromethamine salt of Formula (I)] |  |  |  |  | 91.2 ± 7.8 | 47.9 ± 4.9 | −46.9 ± 8.5 | −43.9 ± 9.0 | 
10 | (S) 2-Ethoxy-3-(4-{2-[2-methyl-5-(4-methylthiophenyl)-pyrrol-1-yl]-ethoxy}-phenyl)-propionic acid Dibenzylamine salt [Dibenzylamine salt of Formula (I)] |  |  |  |  | 91.0 ± 6.7 | 42.1 ± 2.9 | −54.4 ± 5.8 | −51.8 ± 6.1 | 
11 | CCO[C@@H](Cc1ccc(OCCn2c(C)ccc2-c2ccc(SC)cc2)cc1)C(=O)[O-].[K+] [Potassium Salt of formula (I), (S) 2-Ethoxy-3-(4-{2-[2-methyl-5-(4-methylthiophenyl)-pyrrol-1-yl]-ethoxy}-phenyl)-propionic acid potassium salt] |  |  |  |  |  |  |  |  | Serum triglycerides (mg/dl) Day 0 (Swiss albino mice; [1]): 119.0 ± 9.2 mg/dL; Serum triglycerides (mg/dl) Day 6 (Swiss albino mice; [1]): 44.8 ± 4.6 mg/dL; % Change Vs control (Swiss albino mice; Table 3, oral): −60.2 ± 6.0%; % Change Day 6 vs Day 0 (Swiss albino mice; [1]): −60.7 ± 6.0%
12 | (S) 2-Ethoxy-3-(4-{2-[2-methyl-5-(4-methylthiophenyl)-pyrrol-1-yl]-ethoxy}-phenyl)-propionic acid L-Lysine salt [L-lysine salt of Formula (I)] |  |  |  |  | 91.2 ± 6.8 | 48.7 ± 3.3 | −48.7 ± 3.6 | −45.8 ± 3.8 | 
13 | (S) 2-Ethoxy-3-(4-{2-[2-methyl-5-(4-methylthiophenyl)-pyrrol-1-yl]-ethoxy}-phenyl)-propionic acid Meglumine salt [Maglumine salt of Formula (I)] | 110.6 ± 9.1 | 32.4 ± 1.5 | −66.5 ± 2.5 | −70.0 ± 2.2 |  |  |  |  | 
14 | CN(C)C(=N)N=C(N)N [Metformin, 1,1-Dimethylbiguanidine, reference compound] |  |  |  |  |  |  |  |  | % improvement in AUC glucose vs control (db/db mice; OGTT after 14 days of treatment): 20.4%; AUC Glucose (db/db mice; OGTT day 14, fasting, glucose load 2 gm/kg): 45255.9 mg·min/dL
15 | Benzenepropanoic acid, α-ethoxy-4-[2-[2-methyl-5-[4-(methylthio) phenyl]-1H -pyrrol-1-yl] ethoxy]-, magnesium salt [Compound (Ia)] | 111.1 ± 8.4 | 36.9 ± 2.9 | −61.5 ± 4.6 | −65.5 ± 4.2 | 91.4 ± 8.8 | 37.4 ± 3.2 | −60.5 ± 3.5 | −58.3 ± 3.7 | Serum triglycerides (mg/dl) Day 0 (Swiss albino mice; [1]): 117.7 ± 13.8 mg/dL; Serum triglycerides (mg/dl) Day 6 (Swiss albino mice; [1]): 38.2 ± 4.1 mg/dL; % Change Vs control (Swiss albino mice; Table 3, oral): −66.1 ± 4.2%; % Change Day 6 vs Day 0 (Swiss albino mice; [1]): −66.5 ± 4.1%
16 | CCO[C@@H](Cc1ccc(OCCn2c(C)ccc2-c2ccc(SC)cc2)cc1)C(=O)O.NCCO [Ethanolamine salt of Formula (I)] | 110.5 ± 7.5 | 42.5 ± 3.6 | −56.9 ± 3.6 | −61.3 ± 3.2 |  |  |  |  | 
17 | (S) 2-Ethoxy-3-(4-{2-[2-methyl-5-(4-methylthiophenyl)-pyrrol-1-yl]-ethoxy}-phenyl)-propionic acid L-arginine salt [L-arginine salt of Formula (I)] |  |  |  |  | 91.6 ± 7.9 | 37.2 ± 2.1 | −60.2 ± 3.9 | −58.0 ± 4.2 | 
18 | CCO[C@@H](Cc1ccc(OCCn2c(C)ccc2-c2ccc(SC)cc2)cc1)C(=O)O.OCCN(CCO)CCO [Triethanolamine salt of Formula (I)] | 110.3 ± 7.5 | 33.0 ± 2.6 | −65.3 ± 4.4 | −68.9 ± 3.9 |  |  |  |  | 
19 | (S) 2-Ethoxy-3-(4-{2-[2-methyl-5-(4-methylthiophenyl)-pyrrol-1-yl]-ethoxy}-phenyl)-propionic acid benzylamine salt [Benzylamine salt of Formula (I)] |  |  |  |  | 91.1 ± 10.8 | 36.5 ± 4.0 | −60.2 ± 5.8 | −57.9 ± 6.2 | 
